Here are results for 12 compounds from patent US20240287037A1, “CYCLOALKYL COMPOUNDS AND PHARMACEUTICAL COMPOSITIONS THAT MODULATE IKZF2” (Plexium, Inc., priority 2021, published 2024).

The structures appear in SMILES notation.

What all share (format): cell-based
In one test the target is IKZF3 (Aiolos) (Homo sapiens (Human), UniProt Q96SW2+Q9UKT9). The experiment in a line: IKZF3 reporter degradation assay (HEK 293T IKZF3-mNeonGreen reporter cell line). The note with it: HEK 293T reporter cells, 24 hour incubation. The text has this:
(§1) Polycistronic plasmids were constructed for the mammalian expression of fluorescent reporter fusions of human transcription factors IKZF1 (Ikaros), IKZF2 (Helios), and IKZF3 (Aiolos). The respective protein sequences had their C-terminal end joined to a GGGGS linker repeated three times followed by mNeonGreen, P2A sequence, and mScarlet. The DNA sequences of the open reading frames are as follows:
(§2) IKZF1, IKZF2, and IKZF3 constructs were cloned into the UCOE Hygromycin expression vectors (Millipore Sigma). Reporter constructs were transfected using cationic lipid reagents into adherent HEK 293T cells and stable integrants were selected by treatment with 200 μg/mL hygromycin B. Clonal populations were obtained from the population of stable integrants either by limiting dilution or fluorescence activated cell sorting.
(§3) The clonal stable cell lines were maintained under constant 200 μg/mL hygromycin B selection while being passaged for use in the degradation assays. […] The fluorescence intensity of the IKZF1/2/3-mNeonGreen (FITC channel) and mScarlet (PE channel) reporters were routinely analyzed by flow cytometry to confirm consistent expression levels between experiments.
(§4) The IKZF1/IKZF2/IKZF3 degradation assays were carried out by harvesting the HEK 293T reporter cell lines and resuspending the cells in media formulated for reduced background fluorescence (FluoroBrite; Thermo Fisher). The respective cell lines were seeded at a density of 4000 cells/well into black-walled 384-well optical grade assay tissue culture plates. The cells were incubated overnight at 37° C. to allow for attachment to the assay plate. Dilutions of the compounds were prepared in DMSO from 10 mM compound stocks. The assay plates were treated with appropriate concentrations of the compounds by dispensing the DMSO dilutions in quadruplicate wells with an upper limit of 0.5% final DMSO.
(§5) After 24 hour incubation with the compounds, the assay plates were imaged on an ImageXpress Pico microscopy system (cells maintained at 37° C. during imaging) to obtain the fluorescent readouts. The assay plates were imaged in the FITC and Tetramethylrhodamine (TRITC) channels to obtain the mNeonGreen fluorescence intensity (reporter degradation data) and mScarlet fluorescence intensity (for cell segmentation). 293T-IKZF1 and 293T-IKZF3 reporter cell lines were imaged with exposures of 500 milliseconds (ms) for both FITC and TRITC channels, while the 293T-IKZF2 reporter cell line was imaged with exposures of 1000 ms for FITC and 1250 ms for TRITC. The resulting data was analyzed with Cell Reporter Xpress software using the 2-channel cell scoring analysis with a “percent positive” readout. The TRITC channel was selected for the “nuclei” segmentation with a threshold of 20 while the FITC channel was selected for the “Marker 1” segmentation and a threshold of 100 for the IKZF and IKZF3 reporter lines. […] The minimum segmentation width was set to 6 micrometers and the maximum segmentation width was set to 15 micrometers for all cell lines. The DC50 calculations were determined by regression to best fit four-parameter logistic curves using GraphPad Prism.

The next test has as its target IKZF2 (Helios) (Homo sapiens (Human), UniProt Q96SW2+Q9UKS7). The experiment in a line: IKZF2 reporter degradation assay (HEK 293T IKZF2-mNeonGreen reporter cell line). To be noted: 24 hour incubation; for inhibition at 1 µM: HEK-293T, 24 h.
Source text: as §1, §2, §3, §4, §5

The next test deals with GSPT1 (Homo sapiens (Human), UniProt P15170+Q96SW2). The experiment in a line: GSPT1 reporter degradation assay (HEK293 hGSPT1 HiBiT-tagged cells). The note with it: 24 hour incubation. On the procedure:
HEK293_hGSPT1_HiBiT-tagged cells were generated using CRISPR-Cas12a technology. Briefly, ˜400,000 HEK293 cells were transiently co-transfected with precomplexed ribonuclear proteins (RNPs) consisting of […] of crRNA (IDT), […] of Cas12a protein (IDT), 3 μg of ssODN donor (IDT; AltRTM modifications), 78 pmol of electroporation enhancer (IDT), and 200 ng of pMaxGFP (Lonza). The transfection was performed via nucleofection (Lonza, 4D-Nucleofector X-unit) using solution P3 and program CM-130 in a (20 μL) cuvette. Five days post-nucleofection, cells were single-cell-sorted for GFP+ (transfected) cells by FACs in 96-well plates and clonally selected. Clones were screened and verified for the desired modification via targeted deep sequencing using gene-specific primers with partial Illumina adapter overhangs as previously described. In brief, clonal cell pellets were harvested, lysed, and used to generate gene-specific amplicons with partial Illumina adapters in PCR #1. Amplicons were indexed in PCR #2 and pooled with other targeted amplicons for other loci to create sequence diversity. Additionally, 10% PhiX sequencing control V3 (Illumina) was added to the pooled amplicon library prior to running the sample on a Miseq Sequencer System (Illumina) to generate paired 2×250 bp reads. Samples were demultiplexed using the index sequences, fastq files were generated, and NGS analysis was performed using CRIS.py.
The GSTP1 degradation assay was carried out by harvesting the HEK 293T reporter cell lines and resuspending the cells in media formulated for reduced background fluorescence (FluoroBrite; Thermo Fisher). The respective cell lines were seeded at a density of 8,000 cells/well into white-opaque 384-well optical grade assay tissue culture plates (Greiner 781080-20). The cells were incubated overnight at 37° C. to allow for attachment to the assay plate. Dilutions of the compounds were prepared in DMSO from 10 mM compound stocks. […] Plates were centrifuged at 320×g for 2 minutes at room temperature, and subsequently incubated at 37° C.
After 24 hour incubation with the compounds, the plates were allowed to cool to room temperature for 10 minutes. 30 μL of HiBiT lytic buffer+1:50 HiBiT substrate Solution were added to each well. Plates were centrifuged at 320×g for 2 minutes at room temperature and then incubated with shaking at room temperature for 10 minutes covered with foil. Plates were read on a CLARIOstar microplate reader (BMG LabTech), measuring at 450 nm (donor emission) and 610 nm or 630 nm (acceptor emission). The DC50 values were determined by regression to best fit four-parameter logistic curves using GraphPad Prism.

[1] abbreviates: Table 3, HEK 293T reporter cells.
Setting [2] is: second (untitled) table after Table 3.

IKZF2 (Helios), sequence (Q9UKS7 whole entry): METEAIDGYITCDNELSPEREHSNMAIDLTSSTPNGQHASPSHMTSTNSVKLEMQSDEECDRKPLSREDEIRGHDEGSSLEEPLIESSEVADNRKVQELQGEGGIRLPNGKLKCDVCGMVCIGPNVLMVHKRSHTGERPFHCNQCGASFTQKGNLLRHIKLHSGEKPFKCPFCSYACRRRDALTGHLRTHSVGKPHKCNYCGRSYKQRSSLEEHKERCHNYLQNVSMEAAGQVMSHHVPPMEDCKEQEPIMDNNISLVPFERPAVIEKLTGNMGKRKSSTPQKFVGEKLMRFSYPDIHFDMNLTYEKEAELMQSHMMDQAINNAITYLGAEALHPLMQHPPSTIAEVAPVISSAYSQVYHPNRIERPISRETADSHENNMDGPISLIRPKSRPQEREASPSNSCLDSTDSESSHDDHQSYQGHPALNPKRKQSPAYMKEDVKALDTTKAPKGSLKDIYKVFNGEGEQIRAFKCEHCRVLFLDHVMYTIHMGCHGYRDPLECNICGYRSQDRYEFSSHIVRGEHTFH
IKZF2 (Helios), sequence (Q96SW2 whole entry): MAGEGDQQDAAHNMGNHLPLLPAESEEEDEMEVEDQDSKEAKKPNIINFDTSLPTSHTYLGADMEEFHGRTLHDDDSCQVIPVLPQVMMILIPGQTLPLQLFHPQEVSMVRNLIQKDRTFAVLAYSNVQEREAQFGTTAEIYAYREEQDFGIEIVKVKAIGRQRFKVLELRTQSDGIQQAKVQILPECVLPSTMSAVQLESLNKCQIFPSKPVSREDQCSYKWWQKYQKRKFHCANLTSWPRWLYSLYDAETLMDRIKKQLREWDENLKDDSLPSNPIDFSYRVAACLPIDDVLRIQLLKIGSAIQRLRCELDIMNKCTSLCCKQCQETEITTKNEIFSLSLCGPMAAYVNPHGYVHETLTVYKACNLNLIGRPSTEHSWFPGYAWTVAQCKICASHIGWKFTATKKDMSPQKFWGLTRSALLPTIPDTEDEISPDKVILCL
IKZF2 (Helios), sequence (Q16531 whole entry partner): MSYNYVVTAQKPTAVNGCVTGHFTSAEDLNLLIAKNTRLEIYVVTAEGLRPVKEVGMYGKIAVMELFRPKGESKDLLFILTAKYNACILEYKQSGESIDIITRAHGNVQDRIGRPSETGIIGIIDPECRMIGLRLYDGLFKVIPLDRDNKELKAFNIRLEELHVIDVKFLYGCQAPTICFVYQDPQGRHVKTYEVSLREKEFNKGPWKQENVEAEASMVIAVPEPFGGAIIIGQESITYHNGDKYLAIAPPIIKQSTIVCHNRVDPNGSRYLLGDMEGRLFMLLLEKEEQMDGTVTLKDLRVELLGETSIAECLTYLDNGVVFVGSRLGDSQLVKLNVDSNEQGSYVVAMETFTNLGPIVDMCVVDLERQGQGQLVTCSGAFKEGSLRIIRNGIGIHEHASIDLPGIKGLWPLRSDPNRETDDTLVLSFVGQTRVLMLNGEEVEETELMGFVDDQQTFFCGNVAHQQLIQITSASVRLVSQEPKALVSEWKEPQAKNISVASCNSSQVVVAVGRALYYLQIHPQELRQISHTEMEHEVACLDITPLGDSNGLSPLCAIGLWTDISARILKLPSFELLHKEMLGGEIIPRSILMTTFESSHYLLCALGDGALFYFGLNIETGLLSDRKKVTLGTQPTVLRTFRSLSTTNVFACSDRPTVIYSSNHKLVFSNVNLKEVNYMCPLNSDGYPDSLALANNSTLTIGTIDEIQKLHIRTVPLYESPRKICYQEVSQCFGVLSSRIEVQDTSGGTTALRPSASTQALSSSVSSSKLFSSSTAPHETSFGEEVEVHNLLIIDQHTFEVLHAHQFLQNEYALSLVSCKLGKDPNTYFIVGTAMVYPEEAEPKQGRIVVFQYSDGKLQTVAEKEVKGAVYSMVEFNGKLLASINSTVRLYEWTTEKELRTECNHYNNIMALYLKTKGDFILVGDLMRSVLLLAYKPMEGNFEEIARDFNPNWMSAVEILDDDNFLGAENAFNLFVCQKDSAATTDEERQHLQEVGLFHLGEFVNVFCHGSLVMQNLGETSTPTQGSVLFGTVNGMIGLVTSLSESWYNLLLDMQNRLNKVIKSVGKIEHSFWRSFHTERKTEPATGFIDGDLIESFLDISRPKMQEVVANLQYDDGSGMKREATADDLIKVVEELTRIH
IKZF3 (Aiolos), sequence (Q9UKT9 whole entry, the tested form may be a part): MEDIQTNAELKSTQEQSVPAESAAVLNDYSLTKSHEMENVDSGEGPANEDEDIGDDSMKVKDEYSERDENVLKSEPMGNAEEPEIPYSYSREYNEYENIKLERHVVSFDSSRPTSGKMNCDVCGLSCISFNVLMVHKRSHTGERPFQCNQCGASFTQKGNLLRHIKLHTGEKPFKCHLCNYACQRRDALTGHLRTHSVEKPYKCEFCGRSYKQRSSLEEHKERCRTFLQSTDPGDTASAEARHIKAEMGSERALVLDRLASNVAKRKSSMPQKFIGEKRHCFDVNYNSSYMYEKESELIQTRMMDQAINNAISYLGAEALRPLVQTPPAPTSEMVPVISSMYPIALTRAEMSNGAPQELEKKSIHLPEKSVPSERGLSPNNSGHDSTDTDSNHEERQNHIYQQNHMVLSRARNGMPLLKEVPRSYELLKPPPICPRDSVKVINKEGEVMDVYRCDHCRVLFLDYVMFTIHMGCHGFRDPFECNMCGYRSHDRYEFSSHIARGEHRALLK
IKZF3 (Aiolos), sequence (Q96SW2 whole entry, the tested form may be a part): as the sequence (Q96SW2 whole entry) above
IKZF3 (Aiolos), sequence (Q16531 whole entry partner, the tested form may be a part): as the sequence (Q16531 whole entry partner) above
GSPT1, sequence (P15170 whole entry): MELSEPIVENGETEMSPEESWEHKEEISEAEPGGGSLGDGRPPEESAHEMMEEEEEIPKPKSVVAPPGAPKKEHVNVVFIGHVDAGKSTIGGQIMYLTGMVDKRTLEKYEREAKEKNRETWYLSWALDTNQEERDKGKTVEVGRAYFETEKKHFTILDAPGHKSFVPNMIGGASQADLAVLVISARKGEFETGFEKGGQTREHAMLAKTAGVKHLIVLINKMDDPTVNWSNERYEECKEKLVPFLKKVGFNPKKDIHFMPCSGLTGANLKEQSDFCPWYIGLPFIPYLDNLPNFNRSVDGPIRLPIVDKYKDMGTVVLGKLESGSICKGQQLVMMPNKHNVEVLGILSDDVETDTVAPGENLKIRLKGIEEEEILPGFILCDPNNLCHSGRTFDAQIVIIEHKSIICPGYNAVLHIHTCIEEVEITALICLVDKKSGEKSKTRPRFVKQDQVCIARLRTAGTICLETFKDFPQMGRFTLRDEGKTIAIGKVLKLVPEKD
GSPT1, sequence (Q96SW2 whole entry): as the sequence (Q96SW2 whole entry) above
GSPT1, sequence (Q16531 whole entry partner): as the sequence (Q16531 whole entry partner) above

As for `O=C1CCC(N2Cc3cc(O[C@H]4CCCC[C@@H]4N4CC(C5CC(F)(F)C5)C4)ccc3C2=O)C(=O)N1` (stereo partly drawn) [Compound 18, 3-(5-(((1S,2S)-2-(3-(3,3-difluorocyclobutyl)azetidin-1-yl)cyclohexyl)oxy)-1-oxoisoindolin-2-yl)piperidine-2,6-dione], the half-maximal degradation concentration (DC50) at IKZF3 (Aiolos) was greater than 30000 nM; on IKZF2 (Helios) (HEK 293T reporter cells) it was 29 nM; at GSPT1, greater than 30000 nM. In addition, the figures for the inhibition at 1 µM against IKZF2 (Helios) (setting [1]) and against IKZF2 (Helios) (setting [2]) were 71.1% and 95.8%, respectively.
Turning to `O=C1CCC(N2Cc3c(ccc(O[C@H]4CCCC[C@@H]4N4CC(C5CC5)C4)c3F)C2=O)C(=O)N1` (stereo partly drawn) [Compound 24, 3-(5-(((1S,2S)-2-(3-cyclopropylazetidin-1-yl)cyclohexyl)oxy)-4-fluoro-1-oxoisoindolin-2-yl)piperidine-2,6-dione], the values for the DC50 at IKZF3 (Aiolos), on IKZF2 (Helios) (HEK 293T reporter cells) and at GSPT1 were greater than 30000 nM, 18 nM and greater than 30000 nM, respectively. The inhibition at 1 µM against IKZF2 (Helios) (setting [1]) and against IKZF2 (Helios) (setting [2]) was 85.8% throughout.
Take `O=C1CCC(N2Cc3cc(O[C@H]4CCCC[C@@H]4N4CC(C5CCC(F)(F)CC5)C4)ccc3C2=O)C(=O)N1` (stereo partly drawn) [Compound 2, 3-(5-(((1S,2S)-2-(3-(4,4-difluorocyclohexyl)azetidin-1-yl)cyclohexyl)oxy)-1-oxoisoindolin-2-yl)piperidine-2,6-dione]: the 50% degradation concentration (DC50) is greater than 30000 nM at IKZF3 (Aiolos), 3 nM at IKZF2 (Helios) (HEK 293T reporter cells) and greater than 30000 nM on GSPT1. Further, the inhibition at 1 µM on IKZF2 (Helios) (setting [1]) and on IKZF2 (Helios) (setting [2]) was 74.6% throughout.
As to `CC(C)OC1CCC(C2CN([C@H]3CCCC[C@@H]3Oc3ccc4c(c3)CN(C3CCC(=O)NC3=O)C4=O)C2)CC1` (stereo partly drawn) [Compound 16, 3-(5-(((1S,2S)-2-(3-((cis)-4-isopropoxycyclohexyl)azetidin-1-yl)cyclohexyl)oxy)-1-oxoisoindolin-2-yl)piperidine-2,6-dione], the 50% degradation concentration (DC50) on IKZF3 (Aiolos) is greater than 30000 nM; at IKZF2 (Helios) (HEK 293T reporter cells), 1 nM; on GSPT1, greater than 30000 nM. The inhibition at 1 µM on IKZF2 (Helios) (setting [1]) and at IKZF2 (Helios) (setting [2]) was 95.5% in each case.
On to `O=C1CCC(N2Cc3cc(O[C@H]4CCCC[C@@H]4N4CC(C5CC5)C4)c(F)cc3C2=O)C(=O)N1` (stereo partly drawn) [Compound 26, 3-(5-(((1S,2S)-2-(3-cyclopropylazetidin-1-yl)cyclohexyl)oxy)-6-fluoro-1-oxoisoindolin-2-yl)piperidine-2,6-dione], for which the half-maximal degradation concentration (DC50) is greater than 30000 nM on IKZF3 (Aiolos), 25 nM on IKZF2 (Helios) (HEK 293T reporter cells) and greater than 30000 nM at GSPT1. For the same compound, the inhibition at 1 µM at IKZF2 (Helios) (setting [1]) and against IKZF2 (Helios) (setting [2]) was 77.8% in each case.
`O=C1CCC(N2Cc3cc(O[C@H]4CCC[C@@H]4N4CC(C5CCC(F)(F)CC5)C4)ccc3C2=O)C(=O)N1` (stereo partly drawn) [Compound 13, 3-(5-(((1S,2S)-2-(3-(4,4-difluorocyclohexyl)azetidin-1-yl)cyclopentyl)oxy)-1-oxoisoindolin-2-yl)piperidine-2,6-dione]: the figures for the DC50 at IKZF3 (Aiolos), on IKZF2 (Helios) (HEK 293T reporter cells) and on GSPT1 were greater than 30000 nM, 5 nM and greater than 30000 nM, respectively. For the same compound, the inhibition at 1 µM on IKZF2 (Helios) (setting [1]) and against IKZF2 (Helios) (setting [2]) was 75.9% in each case.
On to `O=C1CCC(N2Cc3cc(O[C@H]4CCCC[C@@H]4N4CC(C5CCC5)C4)ccc3C2=O)C(=O)N1` (stereo partly drawn) [Compound 5, 3-(5-(((1S,2S)-2-(3-cyclobutylazetidin-1-yl)cyclohexyl)oxy)-1-oxoisoindolin-2-yl)piperidine-2,6-dione], for which the 50% degradation concentration (DC50) at IKZF3 (Aiolos) is greater than 30000 nM; at IKZF2 (Helios) (HEK 293T reporter cells) it was 4 nM; on GSPT1, greater than 30000 nM. In addition, the inhibition at 1 µM at IKZF2 (Helios) (setting [1]) and on IKZF2 (Helios) (setting [2]) was 85% each time.
With `O=C1CCC(N2Cc3cc(O[C@H]4CCCC[C@@H]4N4CC(C5CCC(OC(F)F)CC5)C4)ccc3C2=O)C(=O)N1` (stereo partly drawn) [Compound 21, 3-(5-(((1S,2S)-2-(3-(4-(difluoromethoxy)cyclohexyl)azetidin-1-yl)cyclohexyl)oxy)-1-oxoisoindolin-2-yl)piperidine-2,6-dione], at IKZF3 (Aiolos) (1 μM), the “IKZF3% Degradation @ 1 μM” value is 32.4%. For the same compound, the 50% degradation concentration (DC50) on IKZF3 (Aiolos) is 6 nM; on IKZF2 (Helios) (HEK 293T reporter cells) it was 2 nM; on GSPT1 it was greater than 30000 nM. For the same compound, the inhibition at 1 µM at IKZF2 (Helios) (setting [1]) and against IKZF2 (Helios) (setting [2]) was 86.7% throughout.
As to `CC(C)OC1CCC(C2CN([C@H]3CCCC[C@@H]3Oc3ccc4c(c3)CN(C3CCC(=O)NC3=O)C4=O)C2)CC1` (stereo partly drawn) [Compound 17, 3-(5-(((1S,2S)-2-(3-((trans)-4-isopropoxycyclohexyl)azetidin-1-yl)cyclohexyl)oxy)-1-oxoisoindolin-2-yl)piperidine-2,6-dione], the figures for the 50% degradation concentration (DC50) at IKZF3 (Aiolos), at IKZF2 (Helios) (HEK 293T reporter cells) and on GSPT1 were greater than 30000 nM, 1 nM and greater than 30000 nM, respectively. For the same compound, the “IKZF2% Degradation @ 1 μM” value at IKZF2 (Helios) (setting [1]) and on IKZF2 (Helios) (setting [2]) was 96.7% in each case.
For `O=C1CCC(N2Cc3cc(O[C@H]4CCC[C@@H]4N4CC(C5CC5)C4)ccc3C2=O)C(=O)N1` (stereo partly drawn) [Compound 22, 3-(5-(((1S,2S)-2-(3-cyclopropylazetidin-1-yl)cyclopentyl)oxy)-1-oxoisoindolin-2-yl)piperidine-2,6-dione], the figures for the 50% degradation concentration (DC50) on IKZF3 (Aiolos), at IKZF2 (Helios) (HEK 293T reporter cells) and on GSPT1 were greater than 30000 nM, 9 nM and greater than 30000 nM, respectively. In addition, the inhibition at 1 µM against IKZF2 (Helios) (setting [1]) and against IKZF2 (Helios) (setting [2]) was 82.6% throughout.
Regarding `O=C1CCC(N2Cc3cc(O[C@H]4CCCC[C@@H]4N4CC(C5CCCCC5)C4)ccc3C2=O)C(=O)N1` (stereo partly drawn) [Compound 1, 3-(5-(((1S,2S)-2-(3-cyclohexylazetidin-1-yl)cyclohexyl)oxy)-1-oxoisoindolin-2-yl)piperidine-2,6-dione], the results for the 50% degradation concentration (DC50) at IKZF3 (Aiolos), on IKZF2 (Helios) (HEK 293T reporter cells) and at GSPT1 were greater than 30000 nM, 4 nM and greater than 30000 nM, respectively. For the same compound, the inhibition at 1 µM on IKZF2 (Helios) (setting [1]) and against IKZF2 (Helios) (setting [2]) was 85.1% in each case.
As to `O=C1CCC(N2Cc3cc(O[C@H]4CCCC[C@@H]4N4CC(C5CCCC(F)(F)C5)C4)ccc3C2=O)C(=O)N1` (stereo partly drawn) [Compound 20, 3-(5-(((1S,2S)-2-(3-(3,3-difluorocyclohexyl)azetidin-1-yl)cyclohexyl)oxy)-1-oxoisoindolin-2-yl)piperidine-2,6-dione], the DC50 on IKZF3 (Aiolos) is greater than 30000 nM; at IKZF2 (Helios) (HEK 293T reporter cells), 3 nM; at GSPT1, greater than 30000 nM. The inhibition at 1 µM on IKZF2 (Helios) (setting [1]) and on IKZF2 (Helios) (setting [2]) was 85% throughout.
